assay: Antiinflammatory activity in rat Polymorphonuclear leukocytes assessed as inhibition of platelet-activating factor-induced beta-glucuronidase release at 10 uM; format: functional

Structure (SMILES) | inhibition at 10 µM
C=CC[C@]1(O)C(=O)C=C2O[C@H](C(C)(C)O)C[C@@]23[C@@H]2C(=O)[C@@](O)(CC=C)[C@@H](C4=C2OC(C)(C)[C@H](O)C4)[C@H]31 [ILLICIDIONE A] | 38.2%
C=CC[C@H]1C[C@]2(O)C[C@H](C(C)(C)O)OC2=C(CC2=C3O[C@@H](C(C)(C)O)C[C@@]3(O)C[C@H](CC=C)C2=O)C1=O [ILLICIDIONE C] | 25.3%
C[C@@H]1C(=O)O[C@H]2[C@H](O)[C@@]34[C@H]5C[C@@H](C(C)(C)C)[C@]36[C@@H](OC(=O)[C@@H]6O)O[C@@]4(C(=O)O5)[C@@]12O [GINKOLIDE B] | 83.5%
C=CCC1=C[C@]2(O)C[C@H](C(C)(C)O)OC2=C(CC2=C3O[C@@H](C(C)(C)O)C[C@@]3(O)C=C(CC=C)C2=O)C1=O [ILLICIDIONE B] | 18.6%
